Experimental findings from patent publication US20230117757A1, “COENZYME Q PRODUCTION ACCELERATOR AND METHOD FOR ACCELERATING COENZYME Q PRODUCTION” (priority 2020, published 2023) are described below.

This experiment has as its system HEK293 cells (human embryonic kidney cells). The experiment can be described thus: coenzyme Q10 production in mitochondria of HEK293 cells cultured with nicotinamide mononucleotide, quantified by LC-MS. It is filed as cell-based. As to conditions: HEK293 cells cultured three days in DMEM medium with 1 mM or 2.5 mM β-nicotinamide mononucleotide daily added; control 0 mM. On the procedure: To examine a production promoting effect of coenzyme Q10 caused by nicotinamide mononucleotide, HEK293 cells (human embryonic kidney cells) were cultured for three days (37° C., 5% CO2) in DMEM medium containing β-nicotinamide mononucleotide with a predetermined concentration (0 mM (control), 1 mM, and 2.5 mM daily added). Three days after the first day of culture, mitochondria were isolated from the HEK293 cells, and contained amounts of each of the reduced form (ubiquinol) and the oxidized form (ubiquinone) of coenzyme Q10 in the mitochondria were quantified by LC-MS method (LC column: KINETEX C18 column (Phenomenex), MS: Shimadzu LCMS-8060 (Shimadzu Corporation), eluent: 10 mM ammonium formate in Methanol, flow rate: 0.5 mL/minute, detection: MS/MS analysis by multiple reaction monitoring (MRM) method; Q10H2 883.6→197.15 m/z, Q10 881.4→197.15 m/z, Q9H2 815.6→197.15 m/z, Q9 813.6→197.15 m/z, Q8H2 747.6→197.15 m/z, Q8 745.6→197.15 m/z) (column: ODS, column temperature: 40° C., eluent: 70% acetonitrile/methanol (1:1) and 30% 0.05 M ammonium formate (prepared to be pH 7.2 with 10% ammonia water), flow rate: 1.0 mL/minute, detection: UV276 nm). […]

SMILES strings stand for the structures.

On to `NC(=O)c1ccc[n+]([C@@H]2O[C@H](COP(=O)(O)O)[C@@H](O)[C@H]2O)c1` [nicotinamide mononucleotide], for which the “sum amount of the reduced form and the oxidized form of coenzyme Q10 in the mitochondria, change vs control” value is “approximately doubled”.
